Assay type in all cases: cell-based
Test [1] deals with human small intestine-derived organoids. Description: Immunostaining for localization of YAP and Ki67. The note with it: 10 μM Lats-IN; in both presence and absence of Matrigel; approximately 10% without Lats-IN. The method, then: (§1) Human small intestine-derived organoids and human large intestine-derived organoids were cultured in the absence and presence of Matrigel (registered trademark) and in the absence and presence of a LATS kinase inhibitor (final concentration: 10 μM) in the same manner as in Experimental Example 2. Subsequently, immunostaining was performed to confirm the localization of YAP. In addition, Ki67, a marker for cell proliferation, was detected to confirm proliferating cells.
The fields of view in the second, third, and fourth panels from the top correspond to the area enclosed in the square in the uppermost panel.
The fields of view in the second, third, and fourth panels from the top correspond to the area enclosed in the square in the uppermost panel. The scale bar represents 50 μm. […]
(§2) FIG. 7 is a graph summarizing the results of FIGS. 5 and 6. As a result, in both the presence and absence of Matrigel (registered trademark), in the absence of Lats-IN, YAP was localized in the cytoplasm, and when the number of Ki67-positive cells, which indicates cell proliferation, was counted, the percentage of Ki67-positive cells was approximately 10% of the total cells. In contrast, in both the presence and absence of Matrigel (registered trademark), in the presence of Lats-IN, the number of cells in which YAP was localized in the nucleus was counted. […]

Test [2] concerns human large intestine-derived organoids. Nature of the test: Immunostaining for localization of YAP and Ki67. The note with it: 10 μM Lats-IN; in both presence and absence of Matrigel; approximately 10% without Lats-IN. The protocol: as §1
The leftmost column of FIG. 6 presents photographs showing the results of immunostaining of the human large intestine-derived organoids cultured in the presence of Matrigel (registered trademark) and in the absence of Lats-IN (Ctrl). […]
as §2

Test [3] concerns human large intestine-derived organoids dissociated into single cells. Description: Organoid formation from single cells (Examination 2). The note with it: absence of Matrigel, presence of TRULI 10 μM. The protocol:
After dissociating human large intestine-derived organoids into single cells, organoid formation from the single cells was observed.
FIG. 27 is a graph showing the results of organoid formation from the single cells in the presence (+) or absence (−) of Matrigel (registered trademark) and in the absence (−) or presence (+, final concentration: 10 μM) of TRULI. […] In addition, the vertical axis of the graph represents the percentage (%) of cells that formed organoids among the seeded single cells.

The test system of test [4] is crypts isolated from human large intestine-derived tissue. Description: Organoid establishment from isolated crypts in absence of Matrigel; time-course ATP and passaging. The conditions noted are these: Lats-IN 10 μM, without Lats-IN died after second passage. The method, then:
Crypts were isolated from human small intestine- and large intestine-derived tissues. The isolated crypts were cultured in the absence of Matrigel (registered trademark) and in the absence or presence of Lats-IN (final concentration: 10 μM).
FIG. 10 is a graph showing the results of a time-course measurement of proliferation of the crypts isolated from the human large intestine-derived tissue over time. The cell proliferation was measured by measuring ATP using a commercially available kit (product name “CellTiter-Glo 3D,” Promega Corporation). The vertical axis of the graph represents luminescence intensity (relative value) indicating the amount of ATP present.

Test [5] has as its system human large intestine-derived organoids. Nature of the test: Niche factor removal; organoid proliferation by ATP (CellTiter-Glo 3D). The note with it: absence of Matrigel; Lats-IN 10 μM; some WRENAIF niche factors removed. The protocol: (§3) In this experimental example, the relationship between LATS inhibition and the niche factors essential for organoid culture was examined. FIG. 14 presents graphs showing the results of measuring the proliferation of human small intestine-derived organoids and human large intestine-derived organoids cultured under conditions in which all WRENAIF niche factors were added, and under conditions in which some of these niche factors were removed. As a medium to which all of the WRENAIF niche factors were added, the medium whose composition is shown in Table 1 above was used, and as a medium from which some of these niche factors were removed, a medium from which the corresponding niche factors were removed from the medium whose composition is shown in Table 1 above was used. The cell proliferation was measured by measuring ATP using a commercially available kit (product name “CellTiter-Glo 3D,” Promega Corporation). The vertical axis of the graph represents luminescence intensity (relative value) indicating the amount of ATP present.
(§4) In addition, on the horizontal axis, added niche factors are shown in black, and niche factors not added are shown in light color.
On the technique in general: In ATP-based viability assays light output follows the ATP content of the culture.

For test [6], the system named is human small intestine-derived organoids. The description is as above. The note with it: absence of Matrigel; Lats-IN 10 μM; some WRENAIF niche factors removed. The protocol: as §3, §4
For test [7] the test system is unchanged. Description: Niche factor removal; continuous passaging P0 to P16 in absence of Matrigel. The note with it: Lats-IN 10 μM. The protocol: FIG. 15 is a graph showing the results of measuring the proliferation of human small intestine-derived organoids cultured in the absence of Matrigel (registered trademark), in the absence or presence of Lats-IN (final concentration: 10 μM), under conditions in which all WRENAIF niche factors were added, and under conditions in which some of these niche factors were removed. In FIG. 15, P0 to P16 indicate passage numbers 0 to 16. In addition, the dark colors in the graph indicate successful passaging, while the light colors indicate unsuccessful passaging.

As for `O=C(N=c1sccn1Cc1ccccc1)c1c[nH]c2ncccc12` [Lats-IN], the “percentage of Ki67-positive cells” value in test [1] and in test [2] was ≥ 50 % of the total cells each time. Further, the “organoid formation from single cells” value in test [3] is “proliferated from single cells and formed organoids”. Further, in test [4], the “passaging and proliferation of isolated crypts (organoid establishment)” value is given as “able to undergo passage almost continuously without cessation of cell proliferation”. In addition, the “cell proliferation without one or two niche factors” value in test [5] and in test [6] was “cells proliferated” throughout. Further, the “continuous passaging in medium lacking any of the WRENAIF niche factors” value in test [7] is reported as “continuous passaging was not possible”.
